Tests used:
[1] = biological target: T1, saT1R2a/R3 (Sparus aurata, UniProt A0A671TK95+A0A671VZB3); assay: saT1R2a/R3 heterodimer transiently transfected in stable pGL3-NFAT-luc-HEK293 (Cl.3) cells, luciferase reporter; assay type: cell-based; conditions: for T1R2a/R3 [MSD] maximum stimulation dose: as molarity, decimal comma
T1 sequence (A0A671TK95 20-825): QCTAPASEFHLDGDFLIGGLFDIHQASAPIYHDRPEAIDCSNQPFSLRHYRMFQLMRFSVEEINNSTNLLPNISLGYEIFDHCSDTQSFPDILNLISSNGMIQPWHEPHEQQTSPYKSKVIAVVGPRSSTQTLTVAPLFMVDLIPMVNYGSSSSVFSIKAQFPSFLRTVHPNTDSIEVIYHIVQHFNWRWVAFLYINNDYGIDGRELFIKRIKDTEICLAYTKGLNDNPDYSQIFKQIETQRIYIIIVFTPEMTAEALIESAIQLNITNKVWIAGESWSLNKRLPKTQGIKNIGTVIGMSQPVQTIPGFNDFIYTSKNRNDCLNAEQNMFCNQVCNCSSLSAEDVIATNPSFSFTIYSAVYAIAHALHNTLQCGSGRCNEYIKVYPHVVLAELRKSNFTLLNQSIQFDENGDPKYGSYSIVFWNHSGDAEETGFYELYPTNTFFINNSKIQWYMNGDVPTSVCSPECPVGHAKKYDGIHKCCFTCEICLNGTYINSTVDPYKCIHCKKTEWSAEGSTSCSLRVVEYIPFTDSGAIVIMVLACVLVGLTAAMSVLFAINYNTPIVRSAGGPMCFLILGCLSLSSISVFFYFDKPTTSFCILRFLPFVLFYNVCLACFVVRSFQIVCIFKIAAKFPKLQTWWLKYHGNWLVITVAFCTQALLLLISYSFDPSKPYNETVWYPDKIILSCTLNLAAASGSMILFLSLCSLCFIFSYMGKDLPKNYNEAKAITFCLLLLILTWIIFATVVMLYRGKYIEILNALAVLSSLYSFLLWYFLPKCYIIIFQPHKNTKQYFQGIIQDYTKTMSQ
T1 sequence (A0A671VZB3 24-860): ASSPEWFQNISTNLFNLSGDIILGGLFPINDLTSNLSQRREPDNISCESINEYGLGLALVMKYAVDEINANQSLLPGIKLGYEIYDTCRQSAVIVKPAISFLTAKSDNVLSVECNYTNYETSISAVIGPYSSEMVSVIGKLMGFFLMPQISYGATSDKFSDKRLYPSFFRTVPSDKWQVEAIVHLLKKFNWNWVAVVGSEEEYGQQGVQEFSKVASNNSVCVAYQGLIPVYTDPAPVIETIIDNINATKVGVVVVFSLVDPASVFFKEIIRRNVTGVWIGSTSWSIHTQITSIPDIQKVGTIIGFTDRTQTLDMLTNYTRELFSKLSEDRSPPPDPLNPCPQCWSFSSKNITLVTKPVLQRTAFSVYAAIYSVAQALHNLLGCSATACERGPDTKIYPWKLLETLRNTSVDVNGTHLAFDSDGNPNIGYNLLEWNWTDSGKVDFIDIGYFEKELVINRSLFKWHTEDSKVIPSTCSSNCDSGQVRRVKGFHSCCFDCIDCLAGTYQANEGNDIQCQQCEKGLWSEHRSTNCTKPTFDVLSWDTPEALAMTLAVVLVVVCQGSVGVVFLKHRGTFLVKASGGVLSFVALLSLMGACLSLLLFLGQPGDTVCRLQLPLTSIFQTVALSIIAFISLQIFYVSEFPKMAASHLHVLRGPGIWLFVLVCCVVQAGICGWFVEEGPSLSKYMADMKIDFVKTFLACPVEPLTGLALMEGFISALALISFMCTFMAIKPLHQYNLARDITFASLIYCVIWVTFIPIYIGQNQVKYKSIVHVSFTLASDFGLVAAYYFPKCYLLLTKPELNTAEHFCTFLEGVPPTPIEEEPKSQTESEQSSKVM
From the text: Figure 6 Amino acid Log-dose response curves of activation in heterologous co-transfected (Cl.3) cells with saT1R1/3 (green dots), saT1R2a/3 (red squares) and saT1R2b/3 (black triangles) heterodimers. Evaluation of L-AA responses was based on the RLU mean ± SEM of four independent determinations normalized to the mean response of the same transfections stimulated with reduced assay medium (Basal Medium Eagle w/o L-glutamate (BME) + 1% FBS), and expressed as the percentage relative to basal levels (BL).
HEK293 cells were cultured in standard medium DMEM (Gibco, Thermo Fisher, Saint Louis, MO, USA) containing 10% FBS, penicillin (100 U/mL) and streptomycin ([…]) at 37 °C, with a humidified atmosphere at 5% CO2. pGL3-NFAT-luc-HEK293 stable clones were generated by co-transfections of pGL3-NFAT-luc and tgCMV/HyTK plasmids (50:1), the latter harboring the hygromycin phosphotransferase gene, using Lipofectamine LTX according to supplier’s protocols (Thermo Fisher, Saint Louis, MO, USA). Initially, HEK293 cells were selected using DMEM containing 400 μg/mL hygromycin B (Sigma, Darmstadt, Germany) in 24-well plates for two weeks; 24 colonies were further grown out in 96-well plates under reduced hygromycin selection (200 µg/mL) for three weeks. Potentially resistant NFAT-luc-HEK293 clones (n = 22) were validated after incubation in assay medium (DMEM + 1% FBS) containing PMA or Ionomycin (Sigma, Darmstadt, Germany) for 18 h (triplicates, 50,000 cells/well). Luciferase activity was quantified with ONE-Glo™ EX Reagent Kit (Promega, Madison, WI, USA) using a 96-microplate TECAN reader (Trading AG, Switzerland).
(§1) saT1Rs (saT1R1, saT1R2a, saT1R2b saT1R3) and saGαi1-2 genes were RT-PCR amplified using 5’ and 3’ flanking primers carrying HindIII and XhoI restriction sites, respectively. Gel-purified fragments were cloned into pGEM-T Easy vectors, re-sequenced, digested and subcloned into pcDNA™3 (Invitrogen, Carlsbad, CA, USA). Effective saT1R cloning into pcDNA™3 was further verified by HindIII/XhoI digestion. Transient co-transfections were done in 6-well plates (confluence ~70–80%) using 100 μL of reduced serum medium (Opti-MEM, Gibco, Thermo Fisher, Saint Louis, MO, USA) containing 150 ng of each selected pcDNA™3 construct, 1:10 charge ratio of Enhanced Green Fluorescent expressing construct (EGFP; positive control), and pBluescript II SK (+) vector DNA (Addgene, Watertown, MA, USA) up to 1 µg of totally transfected DNA. Following 24 h incubation, cells were washed with fresh standard medium and plated in polylysine treated plates for additional 24 h. Cells were then stimulated with L-AAs and sugar compounds for 18 h in a reduced assay medium (BME w/o L-glutamate; Gibco, Thermo Fisher, Saint Louis, MO, USA) + 1% FBS), to prevent unspecific Ca^2+/NFAT signaling activation and potential saT1R desensitization. All L-AAs and sugars used for in vitro experiments were obtained from Merck KGaA (Darmstadt, Germany).

[2] = system: saT1R1/R3, saT1R2a/R3 and saT1R2b/R3; assay: Screen of 20 L-AAs for dose-response activation of the three saT1R heterodimers in Cl.3 cells; assay type: cell-based, Sparus aurata; conditions: up to eight concentrations, 10 nM to 100 mM
Description: as §1

| concentration with significant activation ([1]; saT1R2a/R3, tested 1–500 mM) | Compound | T1R2a/R3 [MSD] maximum stimulation dose [1] | dose-response activation for at least one of the three saT1R heterodimers [2] |
| --- | --- | --- | --- |
|  | C[C@@H](O)[C@H](N)C(=O)O [Thr, Threonine] | 1,00 × 10^-1 M | generated a dose-response activation |
|  | NC(=O)C[C@H](N)C(=O)O [Asn, Asparagine] | 1,00 × 10^-1 M | did not respond in a dose-response manner |
|  | N[C@@H](CO)C(=O)O [Ser, Serine] | 1,00 × 10^-1 M | generated a dose-response activation |
|  | CC[C@H](C)[C@H](N)C(=O)O [Ile, Isoleucine] | 1,00 × 10^-1 M | generated a dose-response activation |
|  | N=C(N)NCCC[C@H](N)C(=O)O [Arg, Arginine] | 1,00 × 10^-5 M | did not respond in a dose-response manner |
|  | NC(=O)CC[C@H](N)C(=O)O [Gln, Glutamine] | 1,00 × 10^-1 M | generated a dose-response activation |
|  | O=C(O)[C@@H]1CCCN1 [Pro, Proline] | 1,00 × 10^-1 M | generated a dose-response activation |
|  | N[C@@H](Cc1ccc(O)cc1)C(=O)O [Tyr, Tyrosine] | 1,00 × 10^-3 M | did not respond in a dose-response manner |
|  | CC(C)[C@H](N)C(=O)O [Val, Valine] | 1,00 × 10^-1 M | generated a dose-response activation |
|  | CC(C)C[C@H](N)C(=O)O [Leu, Leucine] | 1,00 × 10^-1 M | generated a dose-response activation |
|  | CSCC[C@H](N)C(=O)O [Met, Methionine] | 1,00 × 10^-1 M | generated a dose-response activation |
|  | N[C@@H](CC(=O)O)C(=O)O [Asp, Aspartic acid] | 1,00 × 10^-5 M | did not respond in a dose-response manner |
|  | NCC(=O)O [Gly, Glycine] | 1,00 × 10^-1 M | generated a dose-response activation |
|  | N[C@@H](Cc1c[nH]cn1)C(=O)O [His, Histidine] | 1,00 × 10^-5 M | did not respond in a dose-response manner |
|  | N[C@@H](CCC(=O)O)C(=O)O [Glu, Glutamic acid] | 1,00 × 10^-2 M | generated a dose-response activation |
| 200 mM | OC[C@H]1OC(O)[C@H](O)[C@@H](O)[C@@H]1O (stereo partly drawn) [D-Glucose] |  |  |
|  | N[C@@H](CS)C(=O)O [Cys, Cysteine] | 1,00 × 10^-4 M | did not respond in a dose-response manner |
|  | C[C@H](N)C(=O)O [Ala, Alanine] | 1,00 × 10^-1 M | generated a dose-response activation |
|  | NCCCC[C@H](N)C(=O)O [Lys, Lysine] | 1,00 × 10^-3 M | did not respond in a dose-response manner |
|  | N[C@@H](Cc1c[nH]c2ccccc12)C(=O)O [Trp, Tryptophan] | 1,00 × 10^-3 M | did not respond in a dose-response manner |
|  | N[C@@H](Cc1ccccc1)C(=O)O [Phe, Phenylalanine] | 1,00 × 10^-2 M | did not respond in a dose-response manner |

From article PMC7594079, “Insights into the Function and Evolution of Taste 1 Receptor Gene Family in the Carnivore Fish Gilthead Seabream (Sparus aurata)” (International Journal of Molecular Sciences, 2020)
